What was measured:
[1] = molecular target: T1, Alpha-1A adrenergic receptor (Rattus norvegicus, UniProt P43140); assay: DRUGMATRIX: Alpha-1A adrenergic receptor radioligand binding (ligand: prazosin); format: cell membranes, Wistar, Submaxillary gland, Membrane; details: Not Active = under 50% inhibition at 10 µM
T1 sequence (P43140 whole entry): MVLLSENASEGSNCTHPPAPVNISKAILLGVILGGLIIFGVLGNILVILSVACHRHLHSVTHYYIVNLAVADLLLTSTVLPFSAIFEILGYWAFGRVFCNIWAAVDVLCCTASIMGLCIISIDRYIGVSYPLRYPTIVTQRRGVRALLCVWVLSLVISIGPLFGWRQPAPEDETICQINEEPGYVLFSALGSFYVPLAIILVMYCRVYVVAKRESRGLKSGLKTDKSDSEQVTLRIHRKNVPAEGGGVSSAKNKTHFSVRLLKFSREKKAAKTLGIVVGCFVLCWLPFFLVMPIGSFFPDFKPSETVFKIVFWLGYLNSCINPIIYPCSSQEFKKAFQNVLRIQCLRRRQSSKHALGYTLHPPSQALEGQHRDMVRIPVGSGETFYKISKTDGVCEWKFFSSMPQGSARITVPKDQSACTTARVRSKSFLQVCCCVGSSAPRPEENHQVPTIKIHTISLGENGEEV

[2] = molecular target: T2, Alpha-2C adrenergic receptor (Homo sapiens, UniProt P18825); assay: DRUGMATRIX: Adrenergic Alpha-2C radioligand binding (ligand: [3H] MK-912); format: cell membranes, Sf9, Membrane; details: sf9
T2 sequence (P18825 whole entry): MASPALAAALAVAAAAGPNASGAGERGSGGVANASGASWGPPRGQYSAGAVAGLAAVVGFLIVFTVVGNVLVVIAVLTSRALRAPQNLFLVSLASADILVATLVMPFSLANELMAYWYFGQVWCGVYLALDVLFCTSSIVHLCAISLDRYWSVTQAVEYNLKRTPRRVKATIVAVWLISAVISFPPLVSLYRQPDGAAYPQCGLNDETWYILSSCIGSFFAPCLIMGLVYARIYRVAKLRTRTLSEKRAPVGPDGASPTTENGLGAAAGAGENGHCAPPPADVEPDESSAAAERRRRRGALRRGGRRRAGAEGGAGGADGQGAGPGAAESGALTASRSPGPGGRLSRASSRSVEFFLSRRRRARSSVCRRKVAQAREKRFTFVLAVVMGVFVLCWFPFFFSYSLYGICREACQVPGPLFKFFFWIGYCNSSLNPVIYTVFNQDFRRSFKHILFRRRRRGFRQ

[3] = molecular target: T3, Vasoactive intestinal polypeptide receptor 1 (Homo sapiens, UniProt P32241); format: cell membranes, Membrane; details: ht-29; also: in other assays of this panel Not Active means under 50% inhibition at 10 µM
T3 sequence (P32241 whole entry): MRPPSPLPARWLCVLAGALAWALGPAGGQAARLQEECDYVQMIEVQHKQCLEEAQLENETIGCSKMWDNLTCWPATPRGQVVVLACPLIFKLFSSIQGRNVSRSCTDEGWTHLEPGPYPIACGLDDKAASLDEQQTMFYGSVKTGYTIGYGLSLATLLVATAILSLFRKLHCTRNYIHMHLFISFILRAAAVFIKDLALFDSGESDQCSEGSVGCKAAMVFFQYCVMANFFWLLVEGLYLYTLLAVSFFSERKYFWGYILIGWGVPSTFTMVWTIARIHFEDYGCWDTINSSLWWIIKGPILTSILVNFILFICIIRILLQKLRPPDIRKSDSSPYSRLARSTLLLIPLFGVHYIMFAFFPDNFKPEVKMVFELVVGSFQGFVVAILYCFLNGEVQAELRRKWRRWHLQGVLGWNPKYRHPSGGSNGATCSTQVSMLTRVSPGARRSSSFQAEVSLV

Caspase-1 = molecular target: T4, Caspase-1 (Homo sapiens, UniProt P29466); parameters: species or system Escherichia coli;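 also: Caspase-1 enzyme inhibition assay with a peptide substrate; in other assays of this panel Not Active means under 50% inhibition at 10 µM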
T4 sequence (P29466 whole entry): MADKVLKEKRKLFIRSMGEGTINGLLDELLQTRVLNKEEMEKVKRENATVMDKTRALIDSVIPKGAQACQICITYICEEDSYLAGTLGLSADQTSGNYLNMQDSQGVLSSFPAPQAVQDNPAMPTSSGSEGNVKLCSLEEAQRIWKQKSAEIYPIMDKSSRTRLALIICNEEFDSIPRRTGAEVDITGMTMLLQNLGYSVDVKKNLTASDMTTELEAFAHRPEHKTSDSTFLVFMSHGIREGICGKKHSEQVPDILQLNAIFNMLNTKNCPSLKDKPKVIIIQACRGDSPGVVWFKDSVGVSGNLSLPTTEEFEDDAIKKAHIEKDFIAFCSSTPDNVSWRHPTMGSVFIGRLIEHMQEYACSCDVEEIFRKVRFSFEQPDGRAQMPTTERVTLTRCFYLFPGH

[4] = molecular target: Protein kinase C alpha type (Homo sapiens, UniProt P17252); format: cell-based; details: sf9;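 also: inhibition of PKCalpha kinase activity measured in an enzyme assay with histone as the phosphorylation substrate; in other assays of this panel Not Active means under 50% inhibition at 10 µM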
[5] = molecular target: 5-hydroxytryptamine receptor 1B (Rattus norvegicus, UniProt P28564); format: cell membranes, Wistar, Cerebral cortex, Membrane; also: in other assays of this panel Not Active means under 50% inhibition at 10 µM
5-hydroxytryptamine receptor 1B, sequence (P28564 whole entry): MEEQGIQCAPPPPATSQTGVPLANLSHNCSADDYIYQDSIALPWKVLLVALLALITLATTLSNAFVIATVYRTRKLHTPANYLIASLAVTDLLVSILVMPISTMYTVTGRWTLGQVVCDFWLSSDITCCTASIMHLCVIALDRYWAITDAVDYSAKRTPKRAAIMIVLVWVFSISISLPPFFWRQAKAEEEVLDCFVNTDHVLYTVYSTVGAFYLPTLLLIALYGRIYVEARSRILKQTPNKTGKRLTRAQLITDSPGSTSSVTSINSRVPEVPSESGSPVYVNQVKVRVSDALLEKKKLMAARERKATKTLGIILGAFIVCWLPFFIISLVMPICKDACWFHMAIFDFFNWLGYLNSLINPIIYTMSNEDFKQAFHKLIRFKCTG

Acetylcholinesterase = Acetylcholinesterase (Homo sapiens, UniProt P22303); assay: DRUGMATRIX: Acetylcholinesterase enzyme inhibition (substrate: acetylthiocholine); format: cell-based, HEK293; details: hek293; Not Active = under 50% inhibition at 10 µM
Acetylcholinesterase, sequence (P22303 whole entry): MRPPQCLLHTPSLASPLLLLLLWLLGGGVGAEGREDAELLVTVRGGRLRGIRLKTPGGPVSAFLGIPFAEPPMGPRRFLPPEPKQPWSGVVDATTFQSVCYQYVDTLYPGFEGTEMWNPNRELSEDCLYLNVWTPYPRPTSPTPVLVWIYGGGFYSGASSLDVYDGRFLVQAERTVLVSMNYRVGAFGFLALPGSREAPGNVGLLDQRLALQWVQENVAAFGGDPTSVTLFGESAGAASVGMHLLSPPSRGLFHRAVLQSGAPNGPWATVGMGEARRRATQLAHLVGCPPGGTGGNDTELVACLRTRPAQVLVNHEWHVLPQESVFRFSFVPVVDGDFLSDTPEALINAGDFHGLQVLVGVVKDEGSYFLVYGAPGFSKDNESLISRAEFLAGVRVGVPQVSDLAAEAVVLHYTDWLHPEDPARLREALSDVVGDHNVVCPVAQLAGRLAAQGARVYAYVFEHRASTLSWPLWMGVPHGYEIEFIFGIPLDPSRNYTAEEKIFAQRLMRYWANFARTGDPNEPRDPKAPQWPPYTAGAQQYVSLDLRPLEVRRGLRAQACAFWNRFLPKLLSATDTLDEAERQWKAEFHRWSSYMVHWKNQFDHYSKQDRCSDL

Measured: IC50

C[C@]12CC[C@@H]3c4ccc(O)cc4CC[C@H]3[C@@H]1C[C@@H](O)[C@@H]2O [ESTRIOL]
Not Active: all assays above

C#C[C@]1(O)CC[C@H]2[C@@H]3CCC4=CC(=O)CC[C@]4(C)[C@H]3CC[C@@]21C [ETHISTERONE]
Not Active: all assays above

CC(O)(P(=O)(O)O)P(=O)(O)O [ETIDRONIC ACID]
Not Active: all assays above

CC(C)(C(=O)O)c1ccc(C(O)CCCN2CCC(C(O)(c3ccccc3)c3ccccc3)CC2)cc1 (stereo unspecified) [FEXOFENADINE]
Not Active: all assays above

CN1CCN(c2c(F)cc3c(=O)c(C(=O)O)cn(CCF)c3c2F)CC1 [FLEROXACIN]
Not Active: all assays above

O=c1[nH]c(=O)n([C@H]2C[C@H](O)[C@@H](CO)O2)cc1F [FLOXURIDINE]
Not Active: all assays above

COC(=O)Nc1nc2cc(C(=O)c3ccc(F)cc3)ccc2[nH]1 [FLUBENDAZOLE]
Not Active: all assays above

CC(=O)OCC(=O)[C@@]1(O)CC[C@H]2[C@@H]3CCC4=CC(=O)CC[C@]4(C)[C@@]3(F)[C@@H](O)C[C@@]21C [FLUDROCORTISONE ACETATE]
Not Active: all assays above

CCOC(=O)c1ncn2c1CN(C)C(=O)c1cc(F)ccc1-2 [FLUMAZENIL]
Not Active: all assays above

CC(=O)OCC(=O)[C@@]12OC(C)(C)O[C@@H]1C[C@H]1[C@@H]3C[C@H](F)C4=CC(=O)C=C[C@]4(C)[C@@]3(F)[C@@H](O)C[C@@]12C [FLUOCINONIDE]
Not Active: all assays above

O=C(O)P(=O)(O)O [FOSCARNET]
Not Active: all assays above

Cc1ccc(C)c(OCCCC(C)(C)C(=O)O)c1 [GEMFIBROZIL]
Not Active: all assays above

O=c1c(-c2ccc(O)cc2)coc2cc(O)cc(O)c12 [GENISTEIN]
Not Active: all assays above
